Reference: ChEMBL document CHEMBL1201862, “PubChem BioAssay data set” (2004)
The source made the active and inactive calls.

What was measured:
[1] = biological target: Mothers against decapentaplegic homolog 3 (Homo sapiens, UniProt P84022); assay: SMAD3 transcription factor inhibitors, dose response (AID 715); type: functional
H9c2 = assay: cells; type: functional, cell-based; conditions: Rattus norvegicus, H9c2, Myocardium;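 further: confirmatory concentration-response retest of ultra-high-throughput screening hits for modulation of myocardial damage; cell death induced by hydrogen peroxide oxidative stress; compound pretreatment for 60 min then peroxide exposure for 2 h; potency is for protecting the cells against peroxide damage rather than for killing them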
[2] = A Cell Based Secondary Assay To Explore Cytotoxicity of Compounds that Sensitize Mycobacterium Tuberculosis to Beta-Lactam Antibiotics.; type: functional
[3] = cytotoxicity in HPDE-C7 cells, cell-based, fluorescence, HTS (AID 430); type: functional; conditions: Homo sapiens
[4] = cytotoxicity in KRAS-transformed pancreatic duct cells, primary screen, cell-based, fluorescence, HTS (AID 431); type: functional; conditions: Homo sapiens;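 further: cell line used: HPDE-C7K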
[5] = biological target: T1, Neuropeptide Y receptor type 2 (Homo sapiens, UniProt P49146); type: functional, cell-based;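 further: HEK293 cells expressing the receptor and a CNG channel; stimulus was NPY near EC95 followed by isoproterenol to raise cAMP; antagonist potency measured as restoring cAMP signal that NPY suppresses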
T1 sequence (P49146 whole entry): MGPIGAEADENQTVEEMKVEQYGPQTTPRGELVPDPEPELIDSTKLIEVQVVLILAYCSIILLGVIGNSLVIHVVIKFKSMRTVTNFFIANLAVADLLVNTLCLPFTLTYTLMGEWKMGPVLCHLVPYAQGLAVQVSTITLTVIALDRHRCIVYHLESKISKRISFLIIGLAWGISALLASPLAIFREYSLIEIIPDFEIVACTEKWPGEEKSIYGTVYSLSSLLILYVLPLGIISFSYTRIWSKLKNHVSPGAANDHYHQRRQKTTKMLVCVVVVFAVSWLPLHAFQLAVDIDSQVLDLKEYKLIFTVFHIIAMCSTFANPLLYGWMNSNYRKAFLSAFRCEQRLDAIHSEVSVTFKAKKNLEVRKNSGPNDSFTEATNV

[6] = biological target: T2, Ubiquitin-conjugating enzyme E2 N (Homo sapiens, UniProt P61088); type: functional;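 further: Dose-response confirmation in a TR-FRET assay detecting UBC13-driven polyubiquitin chain formation, inhibition measured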
T2 sequence (P61088 whole entry): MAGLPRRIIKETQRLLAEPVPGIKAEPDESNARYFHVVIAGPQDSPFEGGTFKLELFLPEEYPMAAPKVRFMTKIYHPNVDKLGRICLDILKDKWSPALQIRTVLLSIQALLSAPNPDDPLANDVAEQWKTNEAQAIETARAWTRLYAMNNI

[7] = biological target: Heat shock protein HSP 90-alpha (Homo sapiens, UniProt P07900); type: functional, organism-based
[8] = half-maximal inhibitory concentration for glucagon-like peptide-1 release, STC-1 cell line, dose-response (AID 1117345); type: functional, cell-based
[9] = Glucagon-like peptide 1 release potency, NCI-H716 cell line, dose-response, half-maximal inhibitory concentration (AID 1117344); type: functional, cell-based
[10] = biological target: T3, Aryl hydrocarbon receptor (Homo sapiens, UniProt P35869); conditions: Potency;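 further: confirmatory quantitative high-throughput screen measuring activation of the AhR signaling pathway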
T3 sequence (P35869 whole entry): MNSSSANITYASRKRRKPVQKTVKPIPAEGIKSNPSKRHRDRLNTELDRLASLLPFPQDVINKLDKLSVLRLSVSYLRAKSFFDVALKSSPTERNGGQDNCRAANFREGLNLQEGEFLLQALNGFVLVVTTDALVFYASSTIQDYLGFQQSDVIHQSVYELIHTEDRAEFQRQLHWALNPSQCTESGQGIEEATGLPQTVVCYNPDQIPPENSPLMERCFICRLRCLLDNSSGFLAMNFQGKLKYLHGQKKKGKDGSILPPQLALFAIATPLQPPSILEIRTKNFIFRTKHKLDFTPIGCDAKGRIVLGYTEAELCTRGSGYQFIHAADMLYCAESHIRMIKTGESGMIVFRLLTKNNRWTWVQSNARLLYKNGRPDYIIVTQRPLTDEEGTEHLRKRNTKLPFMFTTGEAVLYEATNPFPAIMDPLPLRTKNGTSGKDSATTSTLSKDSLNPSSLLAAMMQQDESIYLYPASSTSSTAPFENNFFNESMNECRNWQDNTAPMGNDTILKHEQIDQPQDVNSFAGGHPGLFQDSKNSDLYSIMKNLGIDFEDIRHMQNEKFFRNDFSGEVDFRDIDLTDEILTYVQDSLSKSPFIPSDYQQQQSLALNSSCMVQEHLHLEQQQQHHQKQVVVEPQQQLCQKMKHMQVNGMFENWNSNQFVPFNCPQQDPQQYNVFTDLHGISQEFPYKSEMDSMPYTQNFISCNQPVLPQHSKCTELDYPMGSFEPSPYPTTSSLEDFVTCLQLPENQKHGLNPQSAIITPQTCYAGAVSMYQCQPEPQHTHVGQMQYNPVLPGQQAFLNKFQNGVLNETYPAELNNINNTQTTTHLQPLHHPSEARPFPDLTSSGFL

Chain of Mothers against decapentaplegic homolog 3 (P84022 whole entry): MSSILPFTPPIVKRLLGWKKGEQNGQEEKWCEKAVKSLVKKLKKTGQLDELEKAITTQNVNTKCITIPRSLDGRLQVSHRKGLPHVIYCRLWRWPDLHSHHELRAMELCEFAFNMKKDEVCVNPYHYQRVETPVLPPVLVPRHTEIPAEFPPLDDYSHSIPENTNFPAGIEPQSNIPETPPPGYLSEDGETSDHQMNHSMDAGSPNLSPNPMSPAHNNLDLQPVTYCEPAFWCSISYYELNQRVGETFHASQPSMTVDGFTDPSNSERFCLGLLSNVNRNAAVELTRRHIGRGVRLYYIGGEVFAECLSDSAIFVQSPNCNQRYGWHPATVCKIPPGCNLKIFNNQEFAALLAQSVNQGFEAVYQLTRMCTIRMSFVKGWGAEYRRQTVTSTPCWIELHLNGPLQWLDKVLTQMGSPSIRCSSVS

In the case of `Cc1ccc(N2C(=O)CS/C2=C(\C(Cl)=C(Cl)Cl)[N+](=O)[O-])cc1`, the IC50 [1] was 27.7 µM (active) and the IC50 (H9c2) was > 79 µM (inactive).

With `CC(C)CC(=O)N1CCN(c2ccc([N+](=O)[O-])c(NCc3ccccc3)c2)CC1` the CC50 [2] was > 40 µM (active).

With `Clc1ccc(COC(Cn2ccnc2)c2ccc(Cl)cc2Cl)cc1` (stereo unspecified) [ECONAZOLE NITRATE] the EC50 [3] was 15.9 µM (active), the EC50 [4] was 15.4 µM (active) and the IC50 [5] was 8.02 µM (active). The IC50 [6] was > 20 µM (inactive), the AC50 [7] was 0.267 µM (active) and the IC50 [8] was 4.29 µM (active). The IC50 [9] was 25.6 µM (inactive) and the AC50 [10] was 56.2 µM (inconclusive).
